Laboratory results from publication PMC7468908 (Nutrients, 2020).
Like-named read-outs stand apart in the source and are kept apart here.

Tests used:
BCRP = molecular target: T1, BCRP (Homo sapiens, UniProt Q9UNQ0); experiment: BCRP vanadate sensitive ATPase activity in Sf9 membrane vesicles; assay type: biochemical; settings: 3 mM Mg-ATP, 25 min, 37 °C
T1 construct: made in house; host or cells: Sf9 insect cells (baculovirus)
T1 sequence (Q9UNQ0 1-655): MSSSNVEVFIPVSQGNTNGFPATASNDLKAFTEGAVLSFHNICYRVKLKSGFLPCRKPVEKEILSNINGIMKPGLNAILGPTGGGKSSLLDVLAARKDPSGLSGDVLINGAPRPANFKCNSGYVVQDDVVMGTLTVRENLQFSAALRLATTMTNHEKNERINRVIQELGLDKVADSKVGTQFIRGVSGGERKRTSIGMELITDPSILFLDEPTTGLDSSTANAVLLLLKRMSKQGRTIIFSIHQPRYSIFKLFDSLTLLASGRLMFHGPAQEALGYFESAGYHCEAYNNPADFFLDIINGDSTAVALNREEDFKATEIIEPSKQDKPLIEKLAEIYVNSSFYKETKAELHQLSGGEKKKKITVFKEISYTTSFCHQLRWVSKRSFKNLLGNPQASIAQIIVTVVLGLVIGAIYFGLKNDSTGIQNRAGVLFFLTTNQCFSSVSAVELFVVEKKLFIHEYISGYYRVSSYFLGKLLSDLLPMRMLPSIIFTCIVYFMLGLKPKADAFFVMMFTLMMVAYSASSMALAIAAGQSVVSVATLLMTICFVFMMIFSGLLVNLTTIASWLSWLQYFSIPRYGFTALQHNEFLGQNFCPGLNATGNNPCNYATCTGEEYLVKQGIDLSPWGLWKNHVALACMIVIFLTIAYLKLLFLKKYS
Protocol: ATPase activity was measured on Sf9 membrane vesicles containing human BCRP prepared as described in 2.5. Appropriate amounts of vesicles (10 μg/50 μL) were used in the assays. Experimental parameters were the same as it has been earlier reported. Membrane vesicles were incubated with 3 mM of Mg-ATP for 25 min at 37 °C. Effects of flavonoids were investigated up to 50 μM. […] ABC transporter function was determined as vanadate sensitive ATPase activity. Liberated inorganic phosphate was measured by a colorimetric reaction as described. Absorbance of samples was measured after 25 min at 660 nm.

OATP1B3 = molecular target: T2, OATP1B3 (Homo sapiens, UniProt Q9NPD5); experiment: OATP1B3-mediated pyranine uptake in A431 cells overexpressing OATP1B3; assay type: cell-based
T2 construct: host or cells: A431
T2 sequence (Q9NPD5 1-702): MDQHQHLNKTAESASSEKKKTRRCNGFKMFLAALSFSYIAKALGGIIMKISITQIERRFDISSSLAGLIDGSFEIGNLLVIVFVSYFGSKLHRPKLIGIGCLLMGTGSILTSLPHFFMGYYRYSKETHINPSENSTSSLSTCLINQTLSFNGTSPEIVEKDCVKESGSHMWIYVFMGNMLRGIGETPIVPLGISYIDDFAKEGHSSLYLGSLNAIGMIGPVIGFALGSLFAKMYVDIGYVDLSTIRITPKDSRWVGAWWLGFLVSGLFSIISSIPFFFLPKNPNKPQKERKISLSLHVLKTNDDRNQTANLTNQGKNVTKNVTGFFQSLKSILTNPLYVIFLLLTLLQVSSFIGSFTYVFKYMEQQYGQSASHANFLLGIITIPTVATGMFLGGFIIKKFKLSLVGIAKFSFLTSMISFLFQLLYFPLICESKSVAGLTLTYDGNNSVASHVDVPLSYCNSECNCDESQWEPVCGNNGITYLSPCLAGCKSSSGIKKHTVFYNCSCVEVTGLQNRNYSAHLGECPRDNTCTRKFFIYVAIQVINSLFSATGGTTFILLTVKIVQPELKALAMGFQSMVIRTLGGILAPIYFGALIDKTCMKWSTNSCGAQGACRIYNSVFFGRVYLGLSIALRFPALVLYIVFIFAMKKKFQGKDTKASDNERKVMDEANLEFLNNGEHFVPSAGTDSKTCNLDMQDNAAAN
Protocol: A431 cells overexpressing human OATPs, 1A2 (BC042452, HsCD00333163), 1B1 (Gene ID: AB026257), 1B3 (BC141525, HsCD00348132) or 2B1 (BC041095.1, HsCD00378878), or their mock transfected controls, were generated as previously described. Cells were cultured in Dulbecco’s Modified Eagle Medium (DMEM; Thermo Fischer Scientific, Waltham, MA, USA) supplemented with 10% fetal bovine serum, 2 mM L-glutamine, 100 units/mL penicillin and 100 µg/mL streptomycin, at 37 °C with 5% CO2.
Briefly, A431 cell overexpressing OATPs, 1A2, 1B1, 1B3 or 2B1, or their mock transfected controls, were seeded on 96-well plates in a density of 8x10^4 cells/well in 200 μL DMEM one day prior to the transport measurements. […] Thereafter, cells were incubated at 37°C for 15 min (OATP1B1 and OATP2B1), 10 min (OATP1A2), or 30 min (OATP1B3). The reactions were stopped by removing the supernatants, then the cells were washed three times with ice-cold PBS. […] OATP-dependent transport was calculated by extracting fluorescence measured in mock transfected cells. Transport activity was calculated based on the fluorescence signal in the absence (100%) of flavonoids. Experiments were repeated at least in three biological replicates. IC50 values were calculated by Hill1 fit, using the Origin Pro8.6 software ([…]).

CYP2C19 = molecular target: T3, CYP2C19 (Homo sapiens, UniProt P33261); experiment: CYP2C19-catalyzed S-mephenytoin hydroxylation (CypExpress kit, HPLC); assay type: biochemical; settings: for concentration inducing statistically significant (p < 0.01) decrease in metabolite formation, CYP2C19: substrate 5 µM S-mephenytoin
T3 construct: purchased Sigma-Aldrich
Protocol: Inhibition of CYP2C19 [47], 3A4 [48], and 2D6 [49] by Q and its conjugates was tested based on our previously reported methods, without modifications.
S-mephenytoin and 4-hydroxymephenytoin (CYP2C19 assay), testosterone and 6β-hydroxytestosterone (CYP3A4 assay), as well as dextromethorphan and dextrorphan (CYP2D6 assay) were quantified using the previously described methods, with minor modifications.
In CYP2C19 assay, the mobile phase contained acetonitrile, methanol (VWR), and sodium phosphate buffer (10 mM, pH 4.55) (17:10:73 v/v%). Samples were driven through a guard column (Phenomenex Security Guard C8, 4.0 × 3.0 mm) linked to an analytical column (Phenomenex C8 100 × 4.6 mm; 2.6 µm), with a 1 mL/min flow rate, at room temperature. After the isocratic elution, S-mephenytoin and 4-hydroxymephenytoin were detected at 230 nm.

[1] = 20 μM pyranine, 30 min, A431-OATP1B3 cells, read-out: IC50 for OATP1B3
[2] = S-mephenytoin hydroxylation, substrate 5 µM, read-out: IC50 for CYP2C19

T3 sequence (P33261 whole entry): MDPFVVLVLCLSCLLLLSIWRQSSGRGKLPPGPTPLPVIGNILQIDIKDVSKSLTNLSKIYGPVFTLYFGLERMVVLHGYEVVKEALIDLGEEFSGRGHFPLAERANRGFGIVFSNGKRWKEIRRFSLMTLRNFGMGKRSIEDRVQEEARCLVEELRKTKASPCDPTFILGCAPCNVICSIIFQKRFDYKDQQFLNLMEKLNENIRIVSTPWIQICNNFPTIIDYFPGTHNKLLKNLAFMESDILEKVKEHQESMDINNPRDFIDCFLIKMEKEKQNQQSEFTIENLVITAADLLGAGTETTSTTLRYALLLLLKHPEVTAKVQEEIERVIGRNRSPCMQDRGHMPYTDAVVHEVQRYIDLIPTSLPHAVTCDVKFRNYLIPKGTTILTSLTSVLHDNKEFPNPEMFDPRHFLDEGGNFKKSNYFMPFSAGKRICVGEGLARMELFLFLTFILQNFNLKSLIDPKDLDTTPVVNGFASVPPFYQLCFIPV

SMILES	concentration inducing statistically significant (p < 0.01) increase in ATPase activity of BCRP (BCRP) [µM]	concentration causing statistically significant (p < 0.01) inhibition, OATP1B3 (OATP1B3; 20 μM pyranine, 30 min) [µM]	concentration inducing statistically significant (p < 0.01) decrease in metabolite formation, CYP2C19 (CYP2C19) [µM]	IC50 (OATP1B3; [1]) [µM]	IC50 (CYP2C19; [2]) [µM]	IC50 (OATP1B3) [µM]	IC50 (CYP2C19) [µM]
COc1cc(-c2oc3cc(O)cc(O)c3c(=O)c2O)ccc1O [IR, isorhamnetin]	0.02	3.1	20	–	–	3.1	> 30
O=c1c(O)c(-c2ccc(O)c(O)c2)oc2cc(O)cc(O)c12 [Q, quercetin]	0.08	2.5	10	3.22	–	–	–
O=c1c(O)c(-c2ccc(O)c(OS(=O)(=O)O)c2)oc2cc(O)cc(O)c12 [Q3′S, quercetin-3′-sulfate]	0.4	1.3	20	2.5	> 30	–	–

Further lines, with some results ahead:

concentration inducing statistically significant (p < 0.01) increase in ATPase activity of BCRP (BCRP) [µM]	concentration causing statistically significant (p < 0.01) inhibition, OATP1B3 (OATP1B3; 20 μM pyranine, 30 min) [µM]	concentration inducing statistically significant (p < 0.01) decrease in metabolite formation, CYP2C19 (CYP2C19) [µM]	IC50 (OATP1B3; [1]) [µM]	IC50 (CYP2C19; [2]) [µM]	SMILES	IC50 (OATP1B3) [µM]	IC50 (CYP2C19) [µM]
50	3.1	20	5.71	> 30	O=C(O)C1OC(Oc2c(-c3ccc(O)c(O)c3)oc3cc(O)cc(O)c3c2=O)C(O)C(O)C1O (stereo not drawn) [Q3G, quercetin-3-glucuronide]	–	–
10	6.3	20	9.62	> 30	COc1cc(-c2oc3cc(O)cc(O)c3c(=O)c2OC2OC(C(=O)O)C(O)C(O)C2O)ccc1O (stereo not drawn) [I3G, isorhamnetin-3-glucuronide]	–	–
